From article PMC6582486, “Stapled EGFR peptide reduces inflammatory breast cancer and inhibits additional HER-driven models of cancer” (Journal of Translational Medicine, 2019) come the findings set out here.

Where a SMILES comes first, the peptide text is derived from it. Bridges are numbered along the chain shown (N, C = ends). [ ]: non-standard residue; d: D form. R8 = C=CCCCCCC[C@@](C)(N)C(=O)O; S5 = C=CCCC[C@](C)(N)C(=O)O Where only a bound is given, the exact number is not on record here.

The test system of data set [1] is Erlotinib-resistant lung adenocarcinoma PDX TM00784. As to the kind of experiment: Lung cancer PDX mouse model TM00784. The format is in vivo. An excerpt: The following PDX mouse models were generated by Jackson Labs (Sacramento, CA): Breast TM01278; Grade 3 invasive ductal carcinoma, primary malignancy; EGFR inactivating R521K mutation; ERBB3 G1288A mutation in kinase domain with unknown effects on activity; increased EGFR/ERBB2/ERBB3. Lung TM00784; Grade 3 lung adenocarcinoma, primary malignancy; EGFR activating L858R mutation; increased EGFR, decreased ERBB2/ERBB3/ERBB4. All animals were maintained as outlined by University of Arizona Institutional Animal Care and Use Committee (IACUC) by the Experimental Mouse Shared Resource (EMSR).
Fig. 3 SAH5-EJ1 inhibits growth and prolongs survival in PDX models of lung cancer. a, b Cell viability assays performed in A549 or EGFR T790M mutated H1975 lung adenocarcinoma cells over 3 days comparing treatment with Sapitinib (blue lines) to SAH5-EJ1 (red lines). Solid lines represent 24 h; dashed lines represent 72 h. Data shown represent mean ± percent difference of assays performed in quadruplicate. c Reduction in tumor burden in Erlotinib-resistant lung cancer PDX mouse model TM00784 with various doses of intravenous SAH5-EJ1. Control represents water as a vehicle control. *p < 0.05 (Control vs 1 µg/g); **p < 0.01 (Control vs 1 µg/g and vs 10 µg/g). d Kaplan–Meier curve of lung PDX mouse model treated with control (blue line) or either 1 or 10 µg/g SAH5-EJ1 (green line and red line, respectively). Data shown represent mean. N = 6 for all groups

The subject of another data set is SUM149-generated tumors. As to the kind of experiment: Inflammatory breast cancer SUM149 mouse model. Format: in vivo, SCID mice. The method, then:
26 female SCID mice were injected with 0.1 mL of a cell solution containing 3.84 × 10^6 SUM149 cells resuspended in Trevigen and sterile saline at site L4. Mice were incubated for 35 days to allow tumor growth prior to injection of SAH5-EJ1, and randomized into 3 groups, N = 8 mice/group. Injections of 5 µg/g or 0.5 µg/g in 0.1 mL volumes of SAH5-EJ1 were administered via tail vein every 3 days for 31 days until the administration route changed to intraperitoneal injections through the conclusion of the study. Control injections of equal volumes of sterile water were also performed. All animals were maintained as outlined by University of Arizona Institutional Animal Care and Use Committee (IACUC) by the Experimental Mouse Shared Resource (EMSR).
Fig. 4 SAH5-EJ1 effectively treats models of basal and inflammatory breast cancers while increasing survival. a Changes in tumor burden in breast cancer PDX mouse model TM01278 with various concentrations of intravenous SAH5-EJ1. Control represents water as a vehicle control. *p < 0.05 (Control vs 1 µg/g); **p < 0.01 (Control vs 1 µg/g and vs 10 µg/g). N = 6 for each condition. b Kaplan–Meier curve of breast PDX mouse model treated with control (blue) or either 1 or 10 µg/g SAH5-EJ1 (green and red, respectively) (red asterisks indicate time point at which mice could no longer receive injections due to site toxicity). Data shown represent mean. N = 6 for all groups. c Cell viability assay performed in SUM149 cells over 3 days comparing treatment with Sapitinib (blue) to SAH5-EJ1 (red) and SAH5-CP (grey). Solid lines represent 24 h; dashed lines represent 72 h. Data shown represent mean ± percent difference of assays performed in triplicate. d Kaplan–Meier curve of inflammatory breast cancer SUM149-injected mouse model treated with injected control (water) (blue) or either 0.5 or 5 µg/g SAH5-EJ1 (green and red, respectively). Data shown represent mean. N = 8 for all groups. e Changes in tumor burden in SUM149-generated tumors with various doses of SAH5-EJ1. Control represents water (blue). […]

For the molecule `CC[C@H](C)[C@H](NC(=O)[C@H](Cc1c[nH]cn1)NC(=O)[C@H](CCCNC(=N)N)NC(=O)[C@H](CCCNC(=N)N)NC(=O)[C@H](CCCNC(=N)N)NC(=O)[C@H](CCSC)NC(=O)[C@H](Cc1ccccc1)NC(=O)[C@H](C)NC(=O)[C@H](CCCNC(=N)N)NC(=O)[C@H](C)NC(=O)[C@H](CCC(N)=O)NC(=O)[C@H](CCCNC(=N)N)NC(=O)[C@H](C)NC(=O)[C@H](C)NC(=O)[C@H](C)NC(=O)[C@H](CCCNC(=N)N)NC(=O)[C@H](C)NC(=O)[C@@H](N)Cc1ccc(O)cc1)C(=O)N[C@H](C(=O)N[C@@H](CCCNC(=N)N)C(=O)N[C@@H](CCCCN)C(=O)N[C@@H](CCCNC(=N)N)C(=O)N[C@]1(C)CCCCCCC=CCCC[C@@](C)(C(=O)N[C@@H](CCCNC(=N)N)C(=O)N[C@@H](CCC(=O)O)C(N)=O)NC(=O)[C@H](CCC(N)=O)NC(=O)[C@H](CC(C)C)NC(=O)[C@H](CC(C)C)NC(=O)[C@H](CCCNC(=N)N)NC(=O)[C@H](CCCNC(=N)N)NC(=O)[C@H](CC(C)C)NC1=O)C(C)C` [SAH5-EJ1] (H-YARAAARQARAFMRRRHIVRKR[R8]LRRLLQ[S5]RE-NH2; staple 23-30), in data set [1] (1 µg/g (low dose) IV), the “survival relative to control-treated mice” value was found to be 1.7 ×. The “decrease in average tumor burden” value in data set [1] (1 µg/g IV, N = 6) is given as more than 50%. The “toxicity in the model” value in data set [1] (1 or 10 µg/g IV) is “no detected toxicity”. Further, the “time of treatment until all animals showed no residual tumor burden” value with SUM149-generated tumors (0.5 or 5 µg/g every 3 days, IV then IP) is listed as not above 55 days. Moreover, the “treated mice displaying tumor regrowth” value in the data set with SUM149-generated tumors (0.5 or 5 µg/g groups together) was 9/16. The “treated mice remaining at the end of the study” value in the data set with SUM149-generated tumors (0.5 or 5 µg/g, treatment up to 203 days) is “more than 40%”.
